According to article PMC4650734, “FV-162 is a novel, orally bioavailable, irreversible proteasome inhibitor with improved pharmacokinetics displaying preclinical efficacy with continuous daily dosing” (Cell Death & Disease, 2015):

Legend:
CT-L proteasome activity = CT-L proteasome activity in RBCs of treated mice; assay type: in vivo, mouse; settings: by 24 h after treatment, murine RBCs, data not shown
Experimental: Cells were harvested by centrifugation at 1200 r.p.m. at room temperature. Cell pellets were washed with PBS and lysed with assay lysis buffer (50 mM HEPES (2-[4-(2-hydroxyethyl) piperazin-1-yl]ethanesulfonic acid)), pH 7.5; 150 mM NaCl; 1% Triton X-100; 2 mM ATP). Cell lysates were incubated on ice for 30 min, mixed by vortex every 5 min, and centrifuged at 12 000 × g for 10 min. Supernatants were transferred to a 96-well plate in triplicate. For each assay, 10 μg of total protein were incubated for 1 h at 37 °C with increasing concentrations (0.001–10 μM) of test compound or vehicle control diluted in assay buffer (50 mM Tris-HCl (tris(hydroxymethyl)aminomethane-HCl), pH 7.5; 150 mM NaCl). After incubation, a specific fluorogenic proteasome substrate was added to each assay reaction (40 μM in a total volume of 100 μl). N-Succinyl-Leu-Leu-Val-Tyr-7-amino-4-methylcoumarin (Suc-Leu-Leu-Val-Tyr-AMC) was used for measuring CT-L activity, t-butoxycarbonyl- Leu-Arg-Arg-7-amino-4-methylcoumarin (Boc-Leu-Arg-Arg-AMC) for T-L activity, and benzyloxycarbonyl-L-leucyl-L-leucyl-L-glutamyl-7-amino-4-methylcoumarin (Z-Leu-Leu-Glu-AMC) for C-L activity. The excitation wavelength was 360 nm and the fluorescence emission of free AMC released during the enzymatic reaction was detected at 460 nm on a SpectraMax M5 fluorescent spectrophotometric plate reader (Molecular Devices, Sunnyvale, CA, USA). AMC release rate was measured at 37 °C in a kinetic mode, recording every 5 min for 30 min.
Five-to-six-week-old male NOD/SCID mice were administered vehicle (5% DMSO, 20% Cremophor) or proteasome inhibitors either intravenously or by oral gavage (3 mice per group), and 20–50 μl of venous blood were collected from each mouse over 24 h. Blood samples were mixed with heparin (APP Pharmaceuticals; Schaumburg, IL, USA) in 0.5-ml tubes in accordance with the manufacturer's instructions. After centrifugal separation at 3000 × g for 10 min, RBCs in the bottom layer were transferred into a new tube and stored at −70 °C until use. RBCs were lysed with assay lysis buffer and incubated on ice for 30 min, mixing by vortex every 5 min, and centrifuged at 12 000 × g for 10 min. Supernatants were transferred to a 96-well plate and proteasome activity was measured as described in 'Cell lysates' section.

[1] = Metabolic stability assay with pooled mouse liver microsomes; assay type: in vitro ADME; settings: 5 μM compound, 15 min, 0.5 mg/ml pooled mouse liver microsomes, LC/MS
Experimental: Pooled liver microsomes isolated from male CD-1 mice were purchased from BD Biosciences (San Jose, CA, USA). Metabolic stability was calculated by measuring the percentage of 5 μM of each test compound remaining after 15 min incubation with 0.5 mg/ml liver microsomes at 37 °C. Compounds were detected by LC/MS using a Xevo quadrupole time-of-flight mass spectrometer and an ACQUITY ultra-performance LC (UPLC) system (Waters Inc., Milford, MA, USA) to determine relative peak areas of each parent compound.

rats = settings: cited from earlier work
[2] = tested on: patients with multiple myeloma; settings: infusion over 30 min; cited from earlier work

For `CC(C)C[C@H](NC(=O)[C@H](Cc1ccccc1)NC(=O)c1cnccn1)B(O)O` [bortezomib, reference compound], the “proteasome activity recovered, of baseline levels” value (CT-L proteasome activity) was over 50%.
For `CC(C)C[C@H](NC(=O)[C@H](CCc1ccccc1)NC(=O)CN1CCOCC1)C(=O)N[C@@H](Cc1ccccc1)C(=O)N[C@@H](CC(C)C)C(=O)[C@@]1(C)CO1` [carfilzomib], the “percentage of parent compound remaining” value [1] is given as 70%, the “rats for which dose was lethal” value (rats; 8 mg/kg, bolus infusion, rats) is given as 44% and the “toxicity of 30 min infusion” value (rats; rat, in vivo) is given as “not toxic”. The “dose tolerated without adverse effects” value [2] was “up to 56 mg/m^2”.
